pIC50: −log10 of the molar value.
How the values were obtained:
[1] = tested on: A549 non-small cell lung cancer; assay: MTT assay; format: cell-based; conditions: Homo sapiens, 72 hr
Procedure: (§1) Human Bladder Cancer TSGH cells, Human hepatoblastoma HepG2 cells, Human colorectal adenocarcinoma HT-29 cells, human nasopharyngeal carcinoma KB cells, Human gastric adenocarcinoma AGS cells, Human breast carcinoma MCF-7 cells, lung carcinoma A549 cells, and Human prostate carcinoma PC-3 cells were used in the preliminary cytotoxicity assays of the benzenesulfonamide derivatives of the present invention, and the inhibition activity against the tumor cells was evaluated.
(§2) All cell lines were maintained in RPMI 1640 supplied with 10% fetal bovine serum and maintained in a humidified chamber at 37° C. containing 5% CO2. Then, all cell lines were treated with compounds for 72 hr and subsequently incubated with 0.4 mg/mL of MTT at 37° C. for 2 hr. The medium was removed, and DMSO was added to dissolve MTT precipitate. Cell proliferation was determined by measuring the optical density at 540 nm using a Thermomax microplate reader (Molecular Devices, Sunnyvale, Calif.), and the IC50 values of the benzenesulfonamide derivatives of the present invention were calculated.

[2] = tested on: Human Bladder Cancer TSGH cells; assay: MTT assay; format: cell-based; conditions: 72 hr
Procedure: as §1, §2

[3] = tested on: Human breast carcinoma MCF-7 cells; assay: MTT assay; format: cell-based; conditions: MCF7, 72 hr
Procedure: as §1, §2

[4] = tested on: Human colorectal adenocarcinoma HT-29 cells; assay: MTT assay; format: cell-based; conditions: 72 hr
Procedure: as §1, §2

[5] = tested on: Human gastric adenocarcinoma AGS cells; assay: MTT assay; format: cell-based; conditions: 72 hr
Procedure: as §1, §2

[6] = tested on: Human hepatoblastoma HepG2 cells; assay: MTT assay; format: cell-based; conditions: 72 hr, read-out: IC50 HepaG2
Procedure: as §1, §2

[7] = tested on: Human prostate carcinoma PC-3 cells; assay: MTT assay; format: cell-based; conditions: 72 hr
Procedure: as §1, §2

[8] = tested on: human nasopharyngeal carcinoma KB cells; assay: MTT assay; format: cell-based
Procedure: as §1, §2

[9] = tested on: Human breast carcinoma MCF-7 cells; assay: SRB assay; format: cell-based; conditions: MCF7, 48 hr
Procedure: as §1
(§3) All cell lines were maintained in RPMI 1640 supplied with 10% fetal bovine serum into 96-well microtiter plates and maintained in a humidified chamber at 37° C. containing 5% CO2. After 24 hr, cell lines in partial wells were fixed in situ with 10% trichloroacetic acid (TCA) to represent a measurement at the time of drug addition (T0). Then, cell lines in other wells were incubated with the benzenesulfonamide derivatives of the present invention for an additional 48 hr, and fixed in situ with 10% TCA to represent a measurement at the time of stopping reaction (Tx). After rinsing the plates with PBS and air-drying, 0.4% sulforhodamine B solution (weight per volume in 1% acetic acid) was added to each well and the plates were incubated for 10 min at room temperature. Unbound sulforhodamine B was removed with 1% acetic acid and the plates were air-dried. Cells bound with sulforhodamine B was subsequently solubilized with 10 mM Tris base (Trizma; Sigma). Cell proliferation was determined by measuring the optical density at 515 nm using a Thermomax microplate reader (Molecular Devices, Sunnyvale, Calif.). The half-inhibition concention (GI50) of the benzenesulfonamide derivatives of the present invention was obtained from the detected optical density.

[10] = tested on: Human colorectal adenocarcinoma HT-29 cells; assay: SRB assay; format: cell-based; conditions: 48 hr
Procedure: as §1, §3

[11] = tested on: Human gastric adenocarcinoma AGS cells; assay: SRB assay; format: cell-based; conditions: 48 hr
Procedure: as §1, §3

[12] = tested on: Human hepatoblastoma HepG2 cells; assay: SRB assay; format: cell-based; conditions: 48 hr
Procedure: as §1, §3

[13] = tested on: Human prostate carcinoma PC-3 cells; assay: SRB assay; format: cell-based
Procedure: as §1, §3

[14] = tested on: lung carcinoma A549 cells; assay: SRB assay; format: cell-based; conditions: Homo sapiens, 48 hr
Procedure: as §1, §3

4T1-Luc cells [15] = assay: In vitro analysis on cell morphology; format: cell-based, murine; conditions: 48 hr
Procedure: After the 4T1-Luc cells were treated with GM119, a phase-contrast microscope was used to observe the cell morphology of the 4T1-Luc cells. Cover glasses were placed in 6-well plates, and each well was seeded with 50,000 tumor cells. The tumor cells were developed in medium with 10% fetal bovine serum, and then treated with 0, 0.01, 0.1, 1, or 10 μM of GM119 for 48 hr. The cells were stained with Giemsa Stain solution (0.38 g of Giemsa powder, 15% of methanol, and 5% of glycerol). After the cells were washed, dried, and sealed, the images of the cells were photographed with a phase-contrast microscope.

4T1-Luc cells [16] = assay: In vivo evaluation, short-time treatment, mice implanted with 4T1-Luc cells
Procedure: GM119 (25 mg/kg) was applied to a mouse implanted with 4T1-Luc cells for a short time, and then Taxol (10 mg/kg) was applied thereto to observe the effect of GM119 on the 4T1-Luc cells.
A suspension of 4T1-Luc cells in matrigel was injected into the breast adipocyte to obtain mice implanted with luciferase tumor cells. […] When the size of the tumor cells was achieved to 200-500 mm^3, the mice were divided into 2 groups, and the number of the mice in each group is ≧5. Then, 0 or 25 mg/kg of GM119 was abdominal-injected into the mice for 5 days, wherein GM119 was dissolved in cremophor, and the volume of injection to each mouse is 50 μl. Then, 0 or 10 mg/kg of Taxol was abdominal-injected into the mice for every 2 days until death of the mice. The weight and the number of the mice were recorded every day to analyze the change on the weight and the survival time of the mice. After the drugs were applied to the mice, the size of the tumor cells in the mice was evaluated with bioluminescence every two days.

[17] = tested on: Human gastric adenocarcinoma AGS cells; assay: SRB assay; format: cell-based; conditions: 48 hr; remark: listed apart in the source
[18] = tested on: Human breast carcinoma MCF-7 cells; assay: SRB assay; format: cell-based; conditions: MCF7, 48 hr; remark: listed apart in the source
[19] = tested on: lung carcinoma A549 cells; assay: SRB assay; format: cell-based; conditions: Homo sapiens, 48 hr; remark: listed apart in the source
[20] = tested on: Human hepatoblastoma HepG2 cells; assay: SRB assay; format: cell-based; conditions: 48 hr; remark: listed apart in the source

COc1ccc(S(=O)(=O)Nc2cccc3c2[nH]c2c(C)ccc(C)c23)cc1 [Compound 6c, N-(5,8-Dimethyl-9H-carbazol-1-yl)-4-methoxybenzenesulfonamide] showed a pIC50 [1] of 5.95, a pIC50 [2] of 6.30 and a pIC50 [3] of 6.62. For the same compound, the pIC50 [4] was 6.40, the pIC50 [5] was 5.85 and the pIC50 [6] was 6.40. The pIC50 [7] was 6.62, the pIC50 ([8]; Homo sapiens, KB, MTT assay, 72 hr) was 6.10 and the “inhibitory activity against KB cells compared with E7070” value ([8]; own MTT value vs literature value) was “has higher inhibitory activity against KB cells than E7070”. For the same compound, the GI50 [9] was 0.63 µM, the GI50 [10] was 0.32 µM and the GI50 [11] was 0.6 µM. For the same compound, the GI50 [12] was 0.07 µM, the GI50 ([13]; 48 hr) was 0.61 µM and the GI50 ([13]; Homo sapiens, PC-3, 48 h) was 0.5 µM. The pIC50 ([13]; Homo sapiens, PC-3, 48 hr) was 5.96, the GI50 [14] was 0.28 µM and the “growth of the 4T1 cells (microscope images)” value (4T1-Luc cells [15]; 0.01 μM) was “the growth of the 4T1 cells can be inhibited”. The “inhibition of the 4T1 cells (microscope images)” value (4T1-Luc cells [15]; 10 μM) was “the inhibition of the 4T1 cells is apparent”, the “survival of the mice” value (4T1-Luc cells [16]; short time: GM119 25 mg/kg abdominal-injected for 5 days, then Taxol 10 mg/kg every 2 days, FIG. 2) was “the survival of the mice can be greatly increased” and the “growth of the tumor cells (bioluminescence)” value (4T1-Luc cells [16]; short-time treatment, GM119 25 mg/kg, Taxol 10 mg/kg) was “the growth of the tumor cells can be inhibited”. The pIC50 [17] was 6.00, the pIC50 [18] was < 5.00 and the pIC50 [19] was 5.00. The pIC50 [20] was 6.00.

— patent publication US8173693B2, “Benzenesulfonamide derivatives and pharmaceutical composition thereof” (Purzer Pharmaceutical Co., Ltd., priority 2010, dated 2012)
